Laboratory results: patent US6686379B2, “Salt form of pantoprazole” (Altana Pharma AG, priority 1998, dated 2004)

Experiment: storage stability of the solid salt forms at 90° C. for 4 days (discoloration, decomposition)
Assay type: physicochemical

In the case of `COc1ccnc(C[S+]([O-])c2nc3cc(OC(F)F)ccc3[n-]2)c1OC.COc1ccnc(C[S+]([O-])c2nc3cc(OC(F)F)ccc3[n-]2)c1OC.O.O.[Mg+2]` (centres unmarked) [pantoprazole magnesium dihydrate], the discoloration or decomposition (4 days at 90° C.) is reported as “almost no discoloration or decomposition”, the stability (4 days at 90° C.) is reported as “completely stable” and the “stability properties in comparison with other forms” value (compared with pantoprazole itself, pantoprazole sodium sesquihydrate and pantoprazole sodium monohydrate) is reported as “very considerably improved stability properties”.

For `COc1ccnc(C[S+]([O-])c2nc3ccc(OC(F)F)cc3[nH]2)c1OC` (centres unmarked) [pantoprazole sodium sesquihydrate, sodium[5-[difluoromethoxy]-2-[[3,4-dimethoxy-2-pyridinyl]methyl]sulfinyl]-1H-benzimidazolide]sesquihydrate, reference compound], the discoloration or decomposition (4 days at 90° C.) was “turn brown-red” and the “formation of decomposition products” value (4 days at 90° C.) was “considerable amounts of decomposition products”.
